“Also recorded” adds a separate entry of the source.
Experiments:
SOD1 mutant mice [1] = experiment: Fluorescein angiography: hypopigmentation and integrity of retinal vessels in SOD1 mutant mice; type: in vivo, mouse
Protocol: FIG. 10. TAPP1 improves integrity of retinal vessels in SOD1 mutant mice. A late stage pathology which has been documented in SOD1 mutant mice is choroidal neovascularization (CNV). This pathology is detected by fluorescein angiography. In this technique, a fluorescent dye (fluorescein) is injected into mice and the flow of this dye through vessels of the retina is monitored using a specialized fundus camera. Leakage of the dye outside the retinal vessels indicates compromised vessel integrity and/or CNV. SOD1 mutant mice (aged 6 months) which have been administered the TAPP1 vehicle (treatment protocol is described above) show a prominent area of dye leakage in the area surrounding the optic disc (indicated by arrow).
A Zeiss FF3 fundus camera with a camera back containing a barrier filter for fluorescein angiography (FA) is used. Animals are placed in a restraint built onto the fundus camera and injected with 25% sodium fluorescein (0.01 ml in sterile saline per 5-6 gm of body weight, i.p.). Immediately following the injection, a timer on the camera back is engaged so that elapsed time in seconds is recorded for each picture. The fluorescein images are recorded on Fujichrome Velvia RVP 100 color slide film.

[2] = test system: explants of wild-type mouse retina; experiment: In vitro model of light-mediated oxidative stress: isoprostane release from retina explants; type: cell-based; conditions: intense light (~10,000 Lux), 2-day incubation
Source text: FIG. 6. Development of an in vitro model of light-mediated oxidative stress. An in vitro model of oxidative stress was developed to determine the therapeutic potency of the TAPP compositions. In this model, explants of wild-type mouse retina are placed into culture media and exposed to intense white light over a 2 day period. Control samples were exposed to subdued lighting (˜100 Lux). The formation of oxidized arachadonic acid (isoprostanes), which is a direct measure of oxidative stress in biological samples, was monitored with a commercially available assay kit (Cayman Chemical Company, Ann Arbor, Mich.).
FIG. 7. TAPP1 reduces light-mediated oxidative stress. The aforementioned in vitro assay of light-mediated oxidative stress was employed to determine the therapeutic potency of TAPP1. In this experiment, isoprostane released from retina explants was measured in the absence and presence of TAPP1 in subdued lighting (˜100 Lux) and during intense light exposure (˜10,000 Lux). […]
The compound TAPP1 (C18H24N4O3), MW 344.18, is formulated as described above. […] TAPP content of the supernatant is analyzed by a capillary reverse phase C18 column. […] The relative quantity of the TAPP is determined by area integration of the TAPP elution peak. […] Isoprostanes are measured with a commercially available in vitro assay kit.

SOD1 mutant mice [3] = experiment: Oxidative stress biomarkers (LH, MDA, NT immunoreactivity) in eye tissue of SOD1 mutant mice after eye drop treatment; type: in vivo, mouse; conditions: eye drops 40 mM TAPP1 in 45% β-cyclodextrin, one drop per day, 30 treatments over 6 weeks, versus vehicle
Source text: FIG. 9. TAPP1 reduces oxidative stress in SOD1 mutant mice. The evolution of oxidative stress and retinal pathology in SOD1 mutant mice, is preceded by the formation of lipid hydroperoxides (LH), and conjugates of malondialdehyde (MDA) and nitrotyrosine (NT). These conjugates are detected in situ using appropriate monoclonal antibodies. To determine the therapeutic efficacy of the TAPP compositions in vivo, we probed fixed sections of eye tissues for these biomarkers following treatment with either TAPP1 (eye drop formulation containing 40 mM TAPP1 in 45% β-cyclodextrin) or the TAPP1 vehicle (β-cyclodextrin alone). Mice (aged 3 months) were treated with one drop per day, 5 treatments per week for 6 weeks, for a total of 30 treatments. In these studies, areas of increased light intensity indicate increased amounts of LH, MDA or NT in the tissue sections.
A mouse which lacks, or is deficient in, the superoxide dismutase 1 (SOD1) enzyme, is used as a model of oxidative stress. Previous investigations have shown that the SOD1-deficient mouse manifests a phenotype which is consistent with age-related macular degeneration (i.e., formation of drusen, thickening of Bruch's membrane and choroidal neovascularization; Imamura, et. al, Proc Natl Acad Sci, 103: 11282-11287, 2006). Following examination of appropriate biomarkers of oxidative stress, the SOD mutant mice are treated with an eye drop formulation containing 40 mM TAPP1 in β-cyclodextrin. The treatment protocol is one drop per day, 5 treatments per week for 6 weeks, for a total of 30 treatments. SOD mutant mice in the control group receive only the TAPP1 vehicle. Following the treatment regime, mice are sacrificed and eyeglobes are enucleated, fixed and prepared for histological examination. The presence of oxidative stress biomarkers (lipid hydroperoxides, LH; malondialdehyde, MDA; and nitrotyrosine, NT) in the tissue sections were evaluated by immunohistochemistry (FIG. 9). […]

With `CC1(C)CC(OC(=O)c2cc(-c3ccncc3)n[nH]2)CC(C)(C)N1[O]` [TAPP1, 1-oxyl-2,2,6,6-tetramethylpiperidin-4-yl 3-(pyridin-4-yl)-1H-pyrazole-5-carboxylate] the “fluorescein dye leakage around the optic disc (integrity of retinal vessels)” value (SOD1 mutant mice [1]; SOD1 mutant mice aged 6 months, TAPP1 eye drops versus vehicle) was “no dye leakage; also recorded: reduced dye leakage”, the severity of hypopigmentation (SOD1 mutant mice [1]; SOD mutant mice aged 186 days, TAPP1 eye drops) was “reduces the severity of hypopigmentation” and the “isoprostane release from retina explants” value [2] was “significantly reduced”. The “lipid hydroperoxide (LH) immunoreactivity in ocular tissue” value (SOD1 mutant mice [3]) was “significantly reduced”, the “malondialdehyde (MDA) immunoreactivity in ocular tissue” value (SOD1 mutant mice [3]) was “significantly reduced” and the “nitrotyrosine (NT) immunoreactivity in ocular tissue” value (SOD1 mutant mice [3]) was “significantly reduced”.

Reference: patent US20090253745A1, “MODULATORS OF OCULAR OXIDATIVE STRESS” (SIRION THERAPEUTICS, INC., priority 2007, published 2009)
